Reference: patent US6949533B2, “6,7-Oxygenated steroids and uses related thereto” (Inflazyme Pharmaceuticals Ltd., priority 1996, dated 2005)

Tests used:
guinea pig ileum = experiment: antigen-induced contraction of ileum from sensitized guinea pigs; conditions: Cavia porcellus, read-out: Percentage Inhibition, 30 μM compound, n = 3-4
Summary of the method: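 Ileum from ovalbumin-sensitized guinea pigs suspended in Tyrode's buffer at 37 °C under 2 g tension, isometric contraction recorded. Tissues preincubated 20 min with 30 μM compound (0.15% DMSO control), then challenged with 100 μg/ml ovalbumin; contraction expressed as percent of 3 μM histamine response.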

[1] = system: Ascaris suum sensitized sheep; experiment: allergic sheep model of asthma; assay type: in vivo
Method: The model is conscious, where the animals are breathing spontaneously, allowing measurement of airways bronchoconstriction and acute airway hyperresponsiveness.
Sheep which were naturally sensitized to Ascaris suum (30-40 Kg) were intubated with an endotracheal tube and a balloon catheter, positioned in the lower esophagus. Pleural pressure was estimated with the esophageal catheter, while later pressure was measured with a side-hole catheter advanced through and positioned distal to the tip of the endotracheal tube. Transpulmonary pressure differences between the trachea and pleural pressures were measured with a differential pressure transducer catheter system.
The proximal end of the endotracheal tube was connected to a Fleisch pneumotachograph in order to measure flow changes. Pulmonary resistance (RL) was calculated from pressure measurements of transpulmonary pressure, respiratory volume (from digital integration of the flow signal) and flow by the mid-flow technique. SRL was calculated as RL Vtg (Vtg=thoracic gas volume).
Aerosols generated using a disposable nebulizer, were directed into a T-piece connected to a Harvard respirator and the tracheal tube in series. The aerosol delivery was controlled using a dosimeter system, consisting of a solenoid valve and compressed air (20 psi) activated at the start of each inspiratory cycle. Aerosols were delivered in tidal volumes of 500 ml at […].
Selected compounds from the invention were dissolved as a stock solution in DMSO and diluted in saline. Animals received either, 400 μg/Kg of compound 30 min prior to challenge and 4 hours after challenge, or 400 μg/Kg of compound for 4 days with the last dose 2 hours before challenge. Ascaris suum extract was diluted in phosphate buffered saline to a concentration of 82000 protein nitrogen units/ml and delivered by aerosol over 20 min. Carbachol was dissolved in PBS to concentrations of 0.25, 0.5 1.0, 2.0, 4.0% wt/vol. Each animal served as its own control throughout the study.
Specific lung resistance (SRL) was measured every 60 min for 8 hours after antigen challenge. Airways hyperresponsiveness to carbachol was measured 24 hours after the initial challenge.

[2] = 400 μg/kg/day for 4 days, inhalation, Baseline

Q: How did the inhibition at 30 µM (guinea pig ileum) turn out when `C/C=C1/CCC2C3C(CC[C@]12C)[C@@]1(C)CC[C@@H](O)CC1[C@@H](O)[C@@H]3O` (stereo partly drawn) [Compound 330, 3α,6α,7β-trihydroxy-17(20)-pregnene] was run?
A: Its inhibition at 30 µM is 70%.

Q: What about the “PC400 Hyperresponsiveness to carbachol” value ([1]; 400 μg/kg inhalation 30 min prior to and 4 hours after challenge, Baseline) of the same compound?
A: The value was 26.01 ± 3.06 Breath Units.

Q: What about the “PC400 Hyperresponsiveness to carbachol” value ([1]; 400 μg/kg inhalation 30 min prior to and 4 hours after challenge, Post-Challenge (24 hours)) of the same compound?
A: Its value is 22.79 ± 6.11 Breath Units.

Q: And the “Specific Lung Resistance” value ([1]; 400 μg/kg inhalation 30 min prior to and 4 hrs after challenge, 1 hr)?
A: Its value is 117 ± 11 % Baseline.

Q: What about the “Specific Lung Resistance” value ([1]; 400 μg/kg inhalation 30 min prior to and 4 hrs after challenge, 2 hr) of the same compound?
A: Its value is 49 ± 11 % Baseline.

Q: What about the “Specific Lung Resistance” value ([1]; 400 μg/kg inhalation 30 min prior to and 4 hrs after challenge, 3 hr) of the same compound?
A: Its value is 32 ± 6 % Baseline.

Q: And the “Specific Lung Resistance” value ([1]; 400 μg/kg inhalation 30 min prior to and 4 hrs after challenge, 4 hr)?
A: The value was 20 ± 6 % Baseline.

Q: What about the “Specific Lung Resistance” value ([1]; 400 μg/kg inhalation 30 min prior to and 4 hrs after challenge, 5 hr) of the same compound?
A: The value was 14 ± 4 % Baseline.

Q: And the “Specific Lung Resistance” value ([1]; 400 μg/kg inhalation 30 min prior to and 4 hrs after challenge, 6 hr)?
A: Its value is 14 ± 5 % Baseline.

Q: What about the “Specific Lung Resistance” value ([1]; 400 μg/kg inhalation 30 min prior to and 4 hrs after challenge, 6.5 hr) of the same compound?
A: Its value is 18 ± 6 % Baseline.

Q: And the “Specific Lung Resistance” value ([1]; 400 μg/kg inhalation 30 min prior to and 4 hrs after challenge, 7 hr)?
A: The value was 10 ± 2 % Baseline.

Q: And the “Specific Lung Resistance” value ([1]; 400 μg/kg inhalation 30 min prior to and 4 hrs after challenge, 7.5 hr)?
A: Its value is 17 ± 8 % Baseline.

Q: What about the “Specific Lung Resistance” value ([1]; 400 μg/kg inhalation 30 min prior to and 4 hrs after challenge, 8 hr) of the same compound?
A: The value was 5 ± 3 % Baseline.

Q: And the “Specific Lung Resistance” value ([1]; 400 μg/kg inhalation 30 min prior to and 4 hrs after challenge, Baseline)?
A: The value was 2 ± 5 % Baseline.

Q: What about the “Specific Lung Resistance” value ([1]; 400 μg/kg inhalation 30 min prior to and 4 hrs after challenge, Challenge (0)) of the same compound?
A: Its value is 268 ± 35 % Baseline.

Q: What about the “Specific Lung Resistance” value ([1]; 400 μg/kg inhalation 30 min prior to and 4 hrs after challenge, −0.5 hr) of the same compound?
A: Its value is 0 ± 4 % Baseline.

Q: What about the “Specific Lung Resistance” value ([1]; 400 μg/kg/day for 4 days, inhalation, 1 hr) of the same compound?
A: Its value is 34.00 ± 10.75 % Baseline.

Q: And the “Specific Lung Resistance” value ([1]; 400 μg/kg/day for 4 days, inhalation, 2 hr)?
A: The value was 11.50 ± 6.18 % Baseline.

Q: And the “Specific Lung Resistance” value ([1]; 400 μg/kg/day for 4 days, inhalation, 3 hr)?
A: Its value is −15.00 ± 37.67 % Baseline.

Q: And the “Specific Lung Resistance” value ([1]; 400 μg/kg/day for 4 days, inhalation, 4 hr)?
A: The value was 4.00 ± 1.78 % Baseline.

Q: What about the “Specific Lung Resistance” value ([1]; 400 μg/kg/day for 4 days, inhalation, 5 hr) of the same compound?
A: Its value is −4.50 ± 4.17 % Baseline.

Q: And the “Specific Lung Resistance” value ([1]; 400 μg/kg/day for 4 days, inhalation, 6 hr)?
A: Its value is 7.75 ± 9.75 % Baseline.

Q: What about the “Specific Lung Resistance” value ([1]; 400 μg/kg/day for 4 days, inhalation, 6.5 hr) of the same compound?
A: Its value is 5.50 ± 4.87 % Baseline.

Q: And the “Specific Lung Resistance” value ([1]; 400 μg/kg/day for 4 days, inhalation, 7 hr)?
A: Its value is 10.75 ± 4.91 % Baseline.

Q: What about the “Specific Lung Resistance” value ([1]; 400 μg/kg/day for 4 days, inhalation, 7.5 hr) of the same compound?
A: The value was 4.00 ± 2.35 % Baseline.

Q: What about the “Specific Lung Resistance” value ([1]; 400 μg/kg/day for 4 days, inhalation, 8 hr) of the same compound?
A: Its value is 3.25 ± 4.73 % Baseline.

Q: And the “PC400 Hyperresponsiveness to carbachol” value [1, 2]?
A: Its value is 21.26 ± 2.75 Breath Units.

Q: And the “Specific Lung Resistance” value [1, 2]?
A: The value was 5.25 ± 4.50 % Baseline.

Q: And the “Specific Lung Resistance” value ([1]; 400 μg/kg/day for 4 days, inhalation, Challenge (0))?
A: The value was 126.00 ± 19.11 % Baseline.

Q: What about the “PC400 Hyperresponsiveness to carbachol” value ([1]; 400 μg/kg/day for 4 days, inhalation, Post-Challenge (24 hours)) of the same compound?
A: The value was 21.21 ± 3.10 Breath Units.

Q: And the “Specific Lung Resistance” value ([1]; 400 μg/kg/day for 4 days, inhalation, −0.5 hr)?
A: The value was −3.75 ± 4.29 % Baseline.
